Assay results taken from patent US8674118B2, “Compounds and methods for the treatment or prevention of flavivirus infections” (priority 2005, dated 2014).
Like-named read-outs stand apart in the source and are kept apart here.

System: HCV RNA replication (replicon cell lines Huh-7, 5.2 and ET)
Experiment: Cell-Based Luciferase Reporter HCV RNA Replication Assay
Settings: Huh-7, 5.2 or ET replicon cells, luciferase counts after 4 days incubation, read-out: IC50

| SMILES | IC50 (Hepatitis C virus, Huh-7, 96 h) | IC50 |
| --- | --- | --- |
| C[C@H]1CC[C@H](C(=O)N(c2cc([C@H]3CC[C@H](C)CC3)sc2C(=O)O)[C@H]2CC[C@H](O)CC2)CC1 [Compound 77, 3-[(trans-4-hydroxy-cyclohexyl)-(trans-4-methyl-cyclohexanecarbonyl)-amino]-5-(trans-4-methyl-cyclohexyl)-thiophene-2-carboxylic acid] | < 5 µM | – |
| CN(c1cc(C2=CCCCC2)sc1C(=O)O)C(=O)[C@H]1CC[C@H](C)CC1 [Compound 37, 5-cyclohex-1-enyl-3-[methyl-(trans-4-methyl-cyclohexanecarbonyl)-amino]-thiophene-2-carboxylic acid] | 5 to 25 µM | – |
| CC1CCC(C(=O)N(c2cc(C3=CCCC(C)C3)sc2C(=O)O)C2CCC(O)CC2)CC1 (stereo not drawn) [Compound 61, RS-3-[(4-trans-hydroxy-cyclohexyl)-(4-trans-methyl-cyclohexanecarbonyl)-amino]-5-(5-methyl-cyclohex-1-enyl)-thiophene-2-carboxylic acid] | – | < 5 µM |
| CC1CCC(C(=O)N(c2cc(C3=CCC(=O)CC3)sc2C(=O)O)C2CCC(O)CC2)CC1 (stereo not drawn) [Compound 25, 3-[(4-trans-hydroxy-cyclohexyl)-(4-trans-methyl-cyclohexanecarbonyl)-amino]-5-(4-oxo-cyclohex-1-enyl)-thiophene-2-carboxylic acid] | 5 to 25 µM | – |
| COC1CCC(N(C(=O)C2CCC(C)CC2)c2cc(C3=CCCC(C)(C)C3)sc2C(=O)O)CC1 (stereo not drawn) [Compound 138, 5-(5,5-dimethyl-cyclohex-1-enyl)-3-[(4-trans-methoxy-cyclohexyl)-(4-trans-methyl-cyclohexanecarbonyl)-amino]-thiophene-2-carboxylic acid] | < 5 µM | – |
| C[C@H]1CC[C@H](C(=O)N(c2cc(C3=CCCCC3)sc2C(=O)O)[C@H]2CC[C@@H](F)CC2)CC1 [Compound 57, 5-cyclohex-1-enyl-3-[(cis-4-fluoro-cyclohexyl)-(trans-4-methyl-cyclohexanecarbonyl)-amino]-thiophene-2-carboxylic acid] | < 5 µM | – |
| CC1CCC(C(=O)N(c2cc(C3=CCCCC3)sc2C(=O)O)C2CCN3C(=O)CCC3C2)CC1 (stereo not drawn) [Compound 87, RS-5-cyclohex-1-enyl-3-[(4-trans-methyl-cyclohexanecarbonyl)-(3-oxo-octahydro-indolizin-7-yl)-amino]-thiophene-2-carboxylic acid] | < 5 µM | – |
| CC(C)C(=O)N[C@H]1CC[C@@H](N(c2cc(C3=CCCCC3)sc2C(=O)O)C(=O)[C@H]2CC[C@H](C)CC2)CC1 [Compound 133, 5-cyclohex-1-enyl-3-[(cis-4-isobutyrylamino-cyclohexyl)-(trans-4-methyl-cyclohexanecarbonyl)-amino]-thiophene-2-carboxylic acid] | < 5 µM | – |
| C[C@H]1CC[C@H](C(=O)N(c2cc(C3=CCCCC3)sc2C(=O)O)C2CCSCC2)CC1 [Compound 42, 5-cyclohex-1-enyl-3-[(trans-4-methyl-cyclohexanecarbonyl)-(tetrahydrothiopyran-4-yl)-amino]-thiophene-2-carboxylic acid] | < 5 µM | – |
| CC1CCC(C(=O)N(c2cc(C3=CCCCC3)sc2C(=O)O)C2CCC(n3ccnn3)CC2)CC1 (stereo not drawn) [Compound 104, 5-cyclohex-1-enyl-3-[(trans-4-methyl-cyclohexanecarbonyl)-(cos-4-[1,2,3]triazol-1-yl-cyclohexyl)-amino]-thiophene-2-carboxylic acid] | < 5 µM | – |
